Tests used:
[1] = system: PPARα/γ/δ, LXRα/β, RXRα/β/γ, RARα/β/γ, VDR and CAR; experiment: Hybrid reporter gene assays for nuclear receptors related to FXR; type: cell-based, human
From the text: The Gal4-fusion receptor plasmids pFA-CMV-hPPARα-LBD[34], pFA-CMV-hPPARγ-LBD[34], pFA-CMV-hPPARδ-LBD[34], pFA-CMV-hLXRα-LBD[35], pFA-CMV-hLXRβ-LBD[35], pFA-CMV-hRXRα-LBD[36], pFA-CMV-hRXRβ-LBD[36], pFA-CMV-hRXRγ-LBD[36], pFA-CMV-hRARα-LBD[36], pFA-CMV-hRARβ-LBD[36], pFA-CMV-hRARγ-LBD[36], pFA-CMV-hVDR-LBD[36] and pFA-CMV-hCAR-LBD[36] coding for the hinge region and ligand binding domain (LBD) of the canonical isoform of the respective nuclear receptor have been reported previously. pFR-Luc (Stratagene) was used as reporter plasmid and pRL-SV40 (Promega) for normalization of transfection efficiency and cell growth.
HEK293T cells were grown in DMEM high glucose, supplemented with 10% FCS, sodium pyruvate (1 mM), penicillin (100 U/mL) and streptomycin (100 μg/mL) at 37 °C and 5% CO2. The day before transfection, HEK293T cells were seeded in 96-well plates (2.5·10^4 cells/well). Before transfection, medium was changed to Opti-MEM without supplements. Transient transfection was carried out using Lipofectamine LTX reagent (Invitrogen) according to the manufacturer’s protocol with pFR-Luc (Stratagene), pRL-SV40 (Promega) and pFA-CMV-hNR-LBD. […] Luminescence was measured with an Infinite M200 luminometer (Tecan Deutschland GmbH) or a Tecan Spark 10 M luminometer (Tecan). […]

[2] = system: PDGF-Rα; experiment: Kinase inhibition assay (radiometric or HTRF); type: biochemical
[3] = Metabolism assay (liver microsomes); type: in vitro ADME, Sprague−Dawley rats; details: rat liver microsomes, 10 μM
Description: (§1) In vitro biological evaluation […]
MgCl2). After 5 min, the reaction was started by the addition of 13 μL of microsome mix from the liver of Sprague−Dawley rats (Invitrogen; 20 mg protein/mL in 0.1 M phosphate buffer) in a shaking water bath at 37 °C.
The reaction was stopped by addition of 250 μL of ice-cold methanol at 0, 15, 30 and 60 min. The samples were diluted with 250 μL of DMSO and centrifuged at 10000 g for 5 min at 4 °C. The supernatants were analyzed and test compound was quantified by HPLC: mobile phase: MeOH 83%/H2O 17%/formic acid 0.1%; flow-rate:
1 mL/min; stationary phase: MultoHigh Phenyl phase, 5 μm, 250 × 4, precolumn, phenyl, 5 μm, 20 × 4; detection wavelength: 330 and 254 nm; injection volume: 50 μL. Control samples were performed to check the stability of 4 or 16 in the reaction mixture: first control was without NADPH, which is needed for the enzymatic activity of the microsomes, second control was with inactivated microsomes (incubated for 20 min at 90 °C), third control was […]
quantified by an external calibration curve, where data are expressed as means ± SEM of single determinations […]
obtained in three independent experiments. […]
as mean percent of remaining compound ± SEM; n=3): 4: 0 min: 100 ± 0%, 15 min: 86 ± 3%, 30 min: 74 ± 1%,

[4] = system: HepG2 cells; experiment: WST-1 assay; type: cell-based; details: 48 h (or 24 h)
Description: as §1
WST-1 assay (Roche Diagnostics International AG, Rotkreuz, Schweiz) was performed according to manufacturer’s protocol and as described previously. In brief, HepG2 cells were seeded in DMEM high glucose, supplemented with SP (1 mM), penicillin (100 U/mL), streptomycin (100 µg/mL) and 10% FCS in 96-well plates (3∙10^4 cells/well). After 24 h, medium was changed to DMEM high glucose, supplemented with penicillin (100 U/mL), streptomycin (100 µg/mL) and 1% charcoal stripped FCS and cells were incubated with 4 or 16 (final […]
and DMEM/1% DMSO as negative controls. After 48 h (or 24 h), WST reagent (Roche Diagnostics International AG) was added to each well according to manufacturer’s instructions. After 45 min incubation, absorption (450 nm/ reference: 620 nm) was determined with a Tecan Infinite M200 luminometer (Tecan Deutschland GmbH). Each experiment was repeated at least three times in triplicates. […]

[5] = system: BSEP mRNA; experiment: FXR target gene quantification (qRT-PCR) in HepG2 cells: BSEP; type: cell-based; details: for BSEP mRNA, mean fold activation compared to DMSO (0.1%): HepG2, 24 h
[6] = system: SHP mRNA; experiment: FXR target gene quantification (qRT-PCR) in HepG2 cells: SHP; type: cell-based; details: for SHP mRNA, mean fold activation compared to DMSO (0.1%): HepG2, 24 h

CS(=O)(=O)O.CS(=O)(=O)O.CS(=O)(=O)O.CS(=O)(=O)O.Cc1ccc(NC(=O)c2ccc(Cl)cc2)cc1Nc1nccc(-c2cccnc2)n1.Cc1ccc(NC(=O)c2ccc(Cl)cc2)cc1Nc1nccc(-c2cccnc2)n1.O.O.O [compound 16, 4-Chloro-N-(4-methyl-3-(4-(pyridin-3-yl)pyrimidin-2-ylamino)phenyl)benzamide dimesylate-sesquihydrate]
Selectivity over nuclear receptors related to FXR [1]: high selectivity | Inhibition of PDGF-Rα [2]: potent inhibitor | mean percent of remaining compound ([3]; 0 min): 100 ± 0% | mean percent of remaining compound ([3]; 15 min): 92 ± 1% | mean percent of remaining compound ([3]; 30 min): 88 ± 1% | mean percent of remaining compound ([3]; 60 min): 86 ± 1% | WST-1, mean percent of untreated control ([4]; HepG2, 0.1 µM): 113 ± 1% | WST-1, mean percent of untreated control ([4]; HepG2, 0.3 µM): 107 ± 7% | WST-1, mean percent of untreated control ([4]; HepG2, 1 µM): 112 ± 3% | WST-1, mean percent of untreated control ([4]; HepG2, 10 µM): 92 ± 2% | WST-1, mean percent of untreated control ([4]; HepG2, 50 µM): 87 ± 2% | WST-1, mean percent of untreated control ([4]; HepG2, 16 (0.3 µM) + 1 (50 µM)): 93 ± 7% | CDCA-induced BSEP mRNA expression compared to 1 alone ([5]; HepG2, 16 co-incubated with 1): about 3 fold | BSEP mRNA, mean fold activation compared to DMSO (0.1%) ([5]; 0.3 µM alone): 2.64 ± 0.07 | BSEP mRNA, mean fold activation compared to DMSO (0.1%) ([5]; 16 (0.3 µM) + 1 (20 µM)): 4.56 ± 0.77 | BSEP mRNA, mean fold activation compared to DMSO (0.1%) ([5]; 16 (0.3 µM) + 1 (50 µM)): 29.37 ± 3.32 | CDCA-induced SHP mRNA expression compared to 1 alone ([6]; HepG2, 16 co-incubated with 1): about 3 fold | SHP mRNA, mean fold activation compared to DMSO (0.1%) ([6]; 0.3 µM alone): 2.32 ± 0.18 | SHP mRNA, mean fold activation compared to DMSO (0.1%) ([6]; 16 (0.3 µM) + 1 (20 µM)): 1.64 ± 0.23 | SHP mRNA, mean fold activation compared to DMSO (0.1%) ([6]; 16 (0.3 µM) + 1 (50 µM)): 12.70 ± 1.04

From paper PMC5931576, “Allosteric modulation of the farnesoid X receptor by a small molecule” (Scientific Reports, 2018)
